According to paper PMC10452266, “Divergent Pharmacology and Biased Signaling of the Four Melanocortin-4 Receptor Isoforms in Rainbow Trout (Oncorhynchus mykiss)” (Biomolecules, 2023):
Like-named read-outs stand apart in the source and are kept apart here.

Key:
hMC4R [1] = biological target: T1, hMC4R (Homo sapiens, UniProt P32245); assay: Ligand-binding assay (displacement of 125I-NDP-MSH), hMC4R
T1 construct: expressed in transfected cells; host or cells: HEK293T
Protocol: (§1) Cells were plated into 24-well or 6-well plates pre-coated with 0.1% gelatin and transfected with plasmids by the calcium phosphate precipitation method.
A binding assay was conducted as described previously.
Binding assays were used to investigate the binding properties of omMc4rs. […] Data are expressed as % of hMC4R binding ± range from duplicate measurements within one experiment. The curves are representative of at least three independent experiments.

omMc4ra2 [2] = assay: Ligand-binding assay (displacement of 125I-NDP-MSH), omMc4ra2; set-up: species or system rainbow trout (Oncorhynchus mykiss); settings: AgRP 10^-12 to 10^-7 M, MCL0020 and Ipsen 5i 10^-11 to 10^-6 M, ML00253764 10^-10 to 10^-5 M, transfected HEK293T cells
Protocol: (§2) Human Embryonic Kidney (HEK) 293T cells, provided by American Type Culture Collection (Manassas, VA, USA), were cultured as described previously. Cells were plated into 24-well or 6-well plates pre-coated with 0.1% gelatin and transfected with plasmids by the calcium phosphate precipitation method.
(§3) A binding assay was conducted as described previously. […].
(§4) Binding assays were used to investigate the binding properties of omMc4rs. […].  Figure 6 Ligand-binding properties of omMc4rs. […]. Data are expressed as % of hMC4R binding ± range from duplicate measurements within one experiment. The curves are representative of at least three independent experiments.

hMC4R [3] = biological target: T1, hMC4R; settings: ref [51]; cited from earlier work
omMc4rb1 [4] = assay: ERK1/2 phosphorylation assay, omMc4rb1; format: cell-based, rainbow trout (Oncorhynchus mykiss)
Protocol: as §2
(§5) HEK293T cells were transfected with omMC4Rs. Twenty-four hours after transfection, cells were washed twice and starved in media without serum for 24 h. […] Rabbit anti-pERK1/2 antibody (Catalog #4370, Cell Signaling, Beverly, MA, USA) and mouse anti-β-tubulin antibody (Developmental Studies Hybridoma Bank, University of Iowa, Iowa City, IA, USA) were used in this study. The bound antibodies were quantified using ImageJ 1.44 software (National Institute of Health, Bethesda, MD, USA).
(§6) Figure 9 ERK1/2 signaling properties of trout Mc4rs. (A) Immunoblots of pERK1/2 in cells expressing omMc4ra1, omMc4ra2, omMc4rb1, or omMc4rb2. HEK293T cells were transiently transfected with omMc4ra1, omMc4ra2, omMc4rb1, omMc4rb2, or empty vector plasmids and were starved overnight 24 h after transfection. […] Western blots were performed as described in Materials and Methods. (B) Densitometry results of basal pERK1/2 levels of omMc4ra1, omMc4ra2, omMc4rb1, and omMc4rb2. (C) Densitometry results of pERK1/2 level of omMc4ra1. (D) Densitometry results of pERK1/2 level of omMc4ra2. (E) Densitometry results of pERK1/2 level of omMc4rb1. (F) Densitometry results of pERK1/2 level of omMc4rb2.

hMC4R [5] = biological target: T1, hMC4R; settings: cited from earlier work
omMc4rb2 [6] = assay: ERK1/2 phosphorylation assay, omMc4rb2; format: cell-based, rainbow trout (Oncorhynchus mykiss); settings: 1 μM α-MSH, 10 nM AgRP, 1 μM MCL0020, 1 μM Ipsen 5i or 1 μM ML00253764, 5 min, HEK293T, Western blot, at least three independent experiments
Protocol: as §2, §5
as §6, with “(E) Densitometry results of pERK1/2 level of omMc4rb1. (F) Densitometry results of pERK1/2 level of omMc4rb2.” left out

ciMc4r [7] = settings: ref [51]; cited from earlier work
omMc4rb2 [8] = assay: Effect of antagonists on basal cAMP level, omMc4rb2; format: cell-based, rainbow trout (Oncorhynchus mykiss); settings: 10 nM AgRP, 1 μM MCL0020, 1 μM ML00253764 or 1 μM Ipsen 5i, 1 h, HEK293T, RIA, three independent experiments
Protocol: as §1
(§7) Intracellular cAMP levels were determined according to previous protocol.

omMc4rb1 [9] = assay: Effect of antagonists on basal cAMP level, omMc4rb1; format: cell-based, rainbow trout (Oncorhynchus mykiss); settings: 10 nM AgRP, 1 μM MCL0020, 1 μM ML00253764 or 1 μM Ipsen 5i, 1 h, HEK293T, RIA, three independent experiments
Protocol: as §1, §7

omMc4ra2 [10] = assay: ERK1/2 phosphorylation assay, omMc4ra2; format: cell-based, rainbow trout (Oncorhynchus mykiss); settings: 1 μM α-MSH, 10 nM AgRP, 1 μM MCL0020, 1 μM Ipsen 5i or 1 μM ML00253764, 5 min, HEK293T, Western blot, at least three independent experiments
Protocol: as §2, §5
as §6, with “(E) Densitometry results of pERK1/2 level of omMc4rb1. (F) Densitometry results of pERK1/2 level of omMc4rb2.” left out

omMc4rb1 [11] = assay: Ligand-binding assay (displacement of 125I-NDP-MSH), omMc4rb1; set-up: species or system rainbow trout (Oncorhynchus mykiss); settings: displacement of 125I-NDP-MSH, transiently transfected HEK293T cells, 48 h after transfection, mean ± SEM of at least three independent experiments
Protocol: as §2, §3, §4

saMc4r [12] = settings: ref [51]; cited from earlier work
omMc4ra1 [13] = assay: Ligand-binding assay (displacement of 125I-NDP-MSH), omMc4ra1; set-up: species or system rainbow trout (Oncorhynchus mykiss); settings: AgRP 10^-12 to 10^-7 M, MCL0020 and Ipsen 5i 10^-11 to 10^-6 M, ML00253764 10^-10 to 10^-5 M, transfected HEK293T cells
Protocol: as §2, §3, §4

saMc4r [14] = settings: ref [51]; cited from earlier work; remark: listed apart in the source
Description: (§8) Numerous constitutively active mutants have been reported in several GPCRs, resulting in various human diseases, and inverse agonism will be vital for correcting the diseases caused by activating mutations in GPCRs. The constitutive activity of teleost Mc4r may have important physiological functions.

ciMc4r [15] = settings: ref [51]; cited from earlier work; remark: listed apart in the source
Description: as §8

omMc4rb2 [16] = assay: Ligand-binding assay (displacement of 125I-NDP-MSH), omMc4rb2; set-up: species or system rainbow trout (Oncorhynchus mykiss); settings: AgRP 10^-12 to 10^-7 M, MCL0020 and Ipsen 5i 10^-11 to 10^-6 M, ML00253764 10^-10 to 10^-5 M, transfected HEK293T cells
Protocol: as §2, §3, §4

omMc4ra1 [17] = assay: ERK1/2 phosphorylation assay, omMc4ra1; format: cell-based, rainbow trout (Oncorhynchus mykiss); settings: 1 μM α-MSH, 10 nM AgRP, 1 μM MCL0020, 1 μM Ipsen 5i or 1 μM ML00253764, 5 min, HEK293T, Western blot, at least three independent experiments
Protocol: as §2, §5
as §6, with “(E) Densitometry results of pERK1/2 level of omMc4rb1. (F) Densitometry results of pERK1/2 level of omMc4rb2.” left out

hMC4R [18] = biological target: T1, hMC4R; settings: ref [48],[51],[81]; cited from earlier work
Description: (§9) MC4R-mediated ERK1/2 signaling has a crucial role in the modulation of energy homeostasis. Although teleost Mc4rs have much higher basal activities in Gs-cAMP signaling, constitutive activation of ERK1/2 signaling is only observed in topmouth culter Mc4r but not in saMc4r and ciMc4r. […] Our data documented that these three compounds only activated ERK1/2 signaling of omMc4rb1 but not the other three omMc4rs (Figure 9).

saMc4r [19] = settings: saMc4r (spotted scat); ref [48],[51],[81]; cited from earlier work
Description: as §9

ciMc4r [20] = settings: ciMc4r (grass carp); ref [48],[51],[81]; cited from earlier work
Description: as §9

omMc4ra1 [21] = assay: Effect of antagonists on basal cAMP level, omMc4ra1; format: cell-based, rainbow trout (Oncorhynchus mykiss); settings: 10 nM AgRP, 1 μM MCL0020, 1 μM ML00253764 or 1 μM Ipsen 5i, 1 h, HEK293T, RIA, three independent experiments
Protocol: as §1, §7

omMc4ra2 [22] = assay: Effect of antagonists on basal cAMP level, omMc4ra2; format: cell-based, rainbow trout (Oncorhynchus mykiss); settings: 10 nM AgRP, 1 μM MCL0020, 1 μM ML00253764 or 1 μM Ipsen 5i, 1 h, HEK293T, RIA, three independent experiments
Protocol: as §1, §7

T1 sequence (P32245 whole entry): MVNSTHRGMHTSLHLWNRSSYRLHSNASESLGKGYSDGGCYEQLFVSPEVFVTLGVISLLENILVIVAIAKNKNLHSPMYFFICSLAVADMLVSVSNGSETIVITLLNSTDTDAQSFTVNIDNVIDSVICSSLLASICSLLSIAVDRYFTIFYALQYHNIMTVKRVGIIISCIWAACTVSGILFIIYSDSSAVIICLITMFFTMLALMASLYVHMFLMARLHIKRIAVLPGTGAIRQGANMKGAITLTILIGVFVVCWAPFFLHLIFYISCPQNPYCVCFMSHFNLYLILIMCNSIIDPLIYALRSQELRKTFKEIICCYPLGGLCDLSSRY

Question: With `CSCC[C@@H]1NC(=O)[C@H](C)NC(=O)[C@H]([C@@H](C)O)NC(=O)CNC(=O)[C@H](CC(C)C)NC(=O)[C@H](CCCCN)NC(=O)[C@H](CCCNC(=N)N)NC(=O)[C@@H]2CSSC[C@@H]3NC(=O)[C@@H]4CCCN4C(=O)[C@H](C(C)C)NC(=O)[C@H](CCC(N)=O)NC(=O)[C@H](CCC(N)=O)NC(=O)CNC(=O)[C@H](CC(C)C)NC(=O)[C@@H]4CSSC[C@H](NC(=O)[C@H]([C@@H](C)O)NC(=O)[C@H](C)NC(=O)[C@H](CSSC[C@@H](C(=O)N[C@@H](CO)C(=O)N[C@@H](CCCNC(=N)N)C(=O)N[C@H](C(=O)O)[C@@H](C)O)NC(=O)[C@@H]5CCCN5C(=O)[C@H](CC(N)=O)NC1=O)NC(=O)[C@@H]1CCCN1C(=O)[C@H](CC(=O)O)NC(=O)[C@H](CSSC[C@H](NC(=O)[C@H](CCCNC(=N)N)NC(=O)[C@H](CCCNC(=N)N)NC(=O)[C@H](CO)NC(=O)[C@@H](N)CO)C(=O)N[C@@H](C(C)C)C(=O)N[C@@H](CCCNC(=N)N)C(=O)N[C@@H](CC(C)C)C(=O)N[C@@H](Cc1c[nH]cn1)C(=O)N[C@@H](CCC(=O)O)C(=O)N[C@@H](CO)C(=O)N4)NC3=O)C(=O)N[C@@H](Cc1ccc(O)cc1)C(=O)N[C@H]1CSSC[C@H](NC(=O)[C@H](Cc3ccccc3)NC(=O)[C@H](C)NC(=O)[C@H](CC(N)=O)NC(=O)[C@H](Cc3ccccc3)NC(=O)[C@H](Cc3ccccc3)NC(=O)[C@H](CCCNC(=N)N)NC1=O)C(=O)N[C@@H](Cc1ccc(O)cc1)C(=O)N2` [AgRP] as the compound, how does the IC50 (hMC4R [1]) read?
Answer: Its IC50 is 32.5 ± 7.76 nM.

Question: Which results are given for `CC(=O)N[C@H](Cc1ccc2ccccc2c1)C(=O)N[C@@H](CCCNC(=N)N)C(=O)N[C@@H](Cc1ccc2ccccc2c1)C(N)=O` [MCL0020, Ac-D-2-Nal-Arg-2-Nal-NH2]?
Answer: displacement of 125I-NDP-MSH binding (omMc4ra2 [2]): only displaced ^125I-NDP-MSH binding to hMC4R and omMc4rb1; NDP-MSH displacement (hMC4R [3]): replaces NDP-MSH binding; effect on ERK1/2 phosphorylation (omMc4rb1 [4]; 1 μM α-MSH, 10 nM AgRP, 1 μM MCL0020, 1 μM Ipsen 5i or 1 μM ML00253764, 5 min, HEK293T, Western blot, at least three independent experiments): significantly increased; biased signaling, cAMP versus ERK1/2 (omMc4rb1 [4]; concluded from binding, cAMP and pERK1/2 results): biased allosteric modulators for omMc4rb1 with selective activation on ERK1/2 signaling; basal activity of hMC4R and constitutively active mutant hMC4Rs (hMC4R [5]; hMC4R and mutants, ref [1],[28],[48],[51]): reduced by inverse agonists; type of ligand at hMC4R (hMC4R [5]; hMC4R, ref [51],[56],[79]): neutral antagonist of hMC4R; effect on ERK1/2 phosphorylation (omMc4rb2 [6]): no effect; NDP-MSH displacement (ciMc4r [7]): replaces NDP-MSH binding; effect on basal cAMP level (omMc4rb2 [8]): no significant effect; effect on basal cAMP level (omMc4rb1 [9]): no significant effect; effect on ERK1/2 phosphorylation (omMc4ra2 [10]): no effect; IC50 (omMc4rb1 [11]): 305 ± 66.2 nM; NDP-MSH displacement (saMc4r [12]): replaces NDP-MSH binding; displacement of 125I-NDP-MSH binding (omMc4ra1 [13]): only displaced ^125I-NDP-MSH binding to hMC4R and omMc4rb1; basal and ligand-induced cAMP levels (saMc4r [14]): no effect on basal and ligand-induced cAMP levels; NDP-MSH-induced cAMP generation (ciMc4r [15]): antagonizes NDP-MSH-induced cAMP generation; basal cAMP production (ciMc4r [15]): decreases the basal cAMP production of ciMc4r; displacement of 125I-NDP-MSH binding (omMc4rb2 [16]): only displaced ^125I-NDP-MSH binding to hMC4R and omMc4rb1; effect on ERK1/2 phosphorylation (omMc4ra1 [17]): not by ML00253764, Ipsen 5i, or MCL0020; biased signaling, Gs-cAMP versus ERK1/2 (hMC4R [18]): preferred activation on ERK1/2 signaling; biased signaling, Gs-cAMP versus ERK1/2 (saMc4r [19]): preferred activation on ERK1/2 signaling; biased signaling, Gs-cAMP versus ERK1/2 (ciMc4r [20]): preferred activation on ERK1/2 signaling; effect on basal cAMP level (omMc4ra1 [21]): no significant effect; IC50 (hMC4R [1]; hMC4R, displacement of 125I-NDP-MSH, transiently transfected HEK293T cells, 48 h after transfection, mean ± SEM of at least three independent experiments, read-out: IC50): 62.3 ± 4.82 nM; effect on basal cAMP level (omMc4ra2 [22]): no significant effect
